# Results from patent US20230371511A1, “MIXTURES CONTAINING CYCLOBUTRIFLURAM” (BASF SE, priority 2020, published 2023).
# What was measured:
# Format in all cases: cell-based
# Conditions in all cases: single active, 7 days after inoculation
# [1] = tested on: Septoria tritici; assay: Microtest: activity against leaf blotch on wheat caused by Septoria tritici (MTP growth, 405 nm)
# Method: (§1) The active compounds were formulated separately as a stock solution having a concentration of 10000 ppm in dimethyl sulfoxide.
# (§2) The stock solutions were mixed according to the ratio, pipetted onto a micro titer plate (MTP) and diluted with water to the stated concentrations. A spore suspension of Septoria tritici in an aqueous biomalt or yeast-bactopeptone-glycerine or DOB solution was then added. The plates were placed in a water vapor-saturated chamber at a temperature of 18° C. Using an absorption photometer, the MTPs were measured at 405 nm 7 days after the inoculation.
# (§3) The measured parameters were compared to the growth of the active compound-free control variant (100%) and the fungus-free blank value to determine the relative growth in % of the pathogens in the respective active compounds.
# (§4) These percentages were converted into efficacies.
# (§5) An efficacy of 0 means that the growth level of the pathogens corresponds to that of the untreated control; an efficacy of 100 means that the pathogens were not growing.
# (§6) The expected efficacies of active compound mixtures were determined using Colby's formula [R. S. Colby, “Calculating synergistic and antagonistic responses of herbicide combinations”, Weeds 15, 20-22 (1967)] and compared with the observed efficacies.
# [2] = tested on: Alternaria solani; assay: Microtest: activity against early blight caused by Alternaria solani (MTP growth, 405 nm)
# Description: as §1, §3, §4
# as §2, with “Alternaria solani” for “Septoria tritici”
# as §5, §6
# [3] = tested on: Cercospora sojina; assay: Microtest: activity against Cercospora sojina (MTP growth, 405 nm)
# Method: as §1
# as §2, with “Cercospora sojina” for “Septoria tritici”, “COB” for “DOB”
# as §3, §4, §5, §6
# [4] = tested on: Rhizoctonia solani; assay: Microtest: activity against Rhizoctonia solani (MTP growth, 405 nm)
# Method: as §1
# as §2, with “Rhizoctonia solani” for “Septoria tritici”, “COB” for “DOB”, “[…].” for “18° C.”
# as §3, §4, §5, §6
# [5] = tested on: Colletotrichum orbiculare; assay: Microtest: activity against anthracnose caused by Colletotrichum orbiculare (MTP growth, 405 nm)
# Description: as §1, §3, §4
# as §2, with “Colletotrichum orbiculare” for “Septoria tritici”, “bio malt” for “biomalt or yeast-bactopeptone-glycerine or DOB”
# as §5, §6
# [6] = 0.25 ppm, 0 = growth as untreated control, 100 = no growth
smiles,measurement,setting,value
"CC(O)(Cn1cncn1)c1ccc(Oc2ccc(Cl)cc2)cc1C(F)(F)F (stereo not drawn) [Mefentrifluconazol, mefentrifluconazole]",Observed efficacy,[1]; 0 ppm (so in the source),68
same,Observed efficacy,[1]; 0.063 ppm,61
same,Observed efficacy,[1]; [6],70
"Cn1nnnc1/C(=N\OCc1cccc(NC(=O)OC(C)(C)C)n1)c1ccccc1 [Picarbutrazox, picarbutrazox]",Observed efficacy,[2]; 0.063 ppm,8
"O=C(NC1CCC1c1ccc(Cl)cc1Cl)c1cccnc1C(F)(F)F (stereo in doubt) [Cyclobutrifluram, cyclobutrifluram]",Observed efficacy,[1]; 0.063 ppm,0
same,Observed efficacy,[1]; [6],7
same,Observed efficacy,[3]; 0.016 ppm,18
same,Observed efficacy,[4]; 1 ppm,0
same,Observed efficacy,[2]; 0.004 ppm,40
same,Observed efficacy,[2]; 0.016 ppm,74
same,Observed efficacy,[5]; 1 ppm,1
"CON(C(=O)c1cn(C)nc1C(F)F)C(C)Cc1c(Cl)cc(Cl)cc1Cl (stereo not drawn) [Pydiflumetofen, pydiflumetofen]",Observed efficacy,[1]; 0.004 ppm,5
same,Observed efficacy,[1]; 0.016 ppm,23
same,Observed efficacy,[3]; 0.00025 ppm,9
"Cn1cc(C(=O)Nc2ccccc2-c2cc(F)c(F)c(F)c2)c(C(F)F)n1 [Fluxapyroxad, fluxapyroxad]",Observed efficacy,[4]; 0.25 ppm,46
"Cc1cc(C(F)(F)F)nn1CC(=O)N1CCC(c2nc(C3=NOC(c4c(F)cccc4F)C3)cs2)CC1 (stereo not drawn) [Oxathiapirolin, oxathiapiprolin]",Observed efficacy,[2]; 0.063 ppm,0
"COCC(=O)N(c1c(C)cccc1C)[C@H](C)C(=O)OC [Mefenoxam, mefenoxam]",Observed efficacy,[1]; 0.063 ppm,6
same,Observed efficacy,[1]; 1 ppm,4
same,Observed efficacy,[1]; 4 ppm,2
"Cc1nc2c(F)c(F)ccc2cc1Oc1cccc(F)c1C(C)(C)O [Ipflufenoquin, ipflufenoquin]",Observed efficacy,[2]; 0.004 ppm,9
same,Observed efficacy,[5]; 0.25 ppm,25
